Structures can show the parent of a compound that is named as a salt.
What follows are compounds tested against T1, human HSL (Homo sapiens, UniProt Q05469) (assay: Human Hormone-Sensitive Lipase (HSL) enzyme inhibition assay (colorimetric, DMPT substrate)). Conditions: read-out: HSL hum IC50.
T1 construct: generate a full length human HSL ORF with a 3′-His6 tag; His6 (C); made in house; host or cells: High 5 insect cells (baculovirus, pFast-BAC)
T1 sequence (Q05469 1-1076): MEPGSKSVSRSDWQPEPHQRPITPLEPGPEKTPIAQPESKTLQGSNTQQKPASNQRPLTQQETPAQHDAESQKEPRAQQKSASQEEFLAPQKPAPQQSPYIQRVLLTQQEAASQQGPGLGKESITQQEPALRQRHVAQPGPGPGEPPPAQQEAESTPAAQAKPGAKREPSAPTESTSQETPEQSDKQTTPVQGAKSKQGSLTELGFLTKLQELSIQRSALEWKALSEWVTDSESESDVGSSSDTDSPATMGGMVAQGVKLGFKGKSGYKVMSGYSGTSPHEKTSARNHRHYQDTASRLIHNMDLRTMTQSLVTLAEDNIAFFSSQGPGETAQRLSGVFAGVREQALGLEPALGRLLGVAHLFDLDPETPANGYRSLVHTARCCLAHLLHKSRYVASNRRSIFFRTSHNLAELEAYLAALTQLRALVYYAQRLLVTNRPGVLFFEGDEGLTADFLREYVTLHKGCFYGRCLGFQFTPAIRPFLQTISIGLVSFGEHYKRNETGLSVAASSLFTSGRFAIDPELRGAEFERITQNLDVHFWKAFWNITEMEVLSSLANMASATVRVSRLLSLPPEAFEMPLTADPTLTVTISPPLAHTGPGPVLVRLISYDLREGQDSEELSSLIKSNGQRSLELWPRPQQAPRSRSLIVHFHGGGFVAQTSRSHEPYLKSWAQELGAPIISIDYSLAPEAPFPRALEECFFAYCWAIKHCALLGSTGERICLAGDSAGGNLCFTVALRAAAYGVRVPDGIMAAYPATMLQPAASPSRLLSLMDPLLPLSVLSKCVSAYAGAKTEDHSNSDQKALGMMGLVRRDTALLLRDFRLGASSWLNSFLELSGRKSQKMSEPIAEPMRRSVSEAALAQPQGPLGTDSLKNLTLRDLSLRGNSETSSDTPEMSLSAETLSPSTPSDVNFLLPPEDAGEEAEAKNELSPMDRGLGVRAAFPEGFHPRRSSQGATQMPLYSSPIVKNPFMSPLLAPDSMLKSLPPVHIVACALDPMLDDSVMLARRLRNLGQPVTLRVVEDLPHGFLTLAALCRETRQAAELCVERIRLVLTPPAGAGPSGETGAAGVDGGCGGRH
Format: biochemical
Outline: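 Full-length human HSL carrying a C-terminal His6 tag was expressed in High 5 insect cells via baculovirus and purified on Ni-NTA. Compounds from 3-fold DMSO series were mixed with 1.5 mM DMPT substrate suspension in 100 mM MOPS pH 7.2 with 0.2 mg/ml fatty acid-free BSA, then enzyme (15 ug/ml) was added for 20 minutes at 37 °C. Released thiol was detected with DTNB plus SDS/Triton X-100 (15 minutes, room temperature) at 405 nm.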

SMILES | IC50
CC(C)(C)c1ccc(NC(=O)C2(O)CCN(C(=O)c3cc(F)ccc3F)CC2)cc1 [Example 43, 1-(2,5-Difluoro-benzoyl)-4-hydroxy-piperidine-4-carboxylic acid (4-tert-butyl-phenyl)-amide] | 640 nM
CCc1ccc(NC(=O)C2(N)CCN(Cc3ccccc3Cl)CC2)cc1 [Example 154, 4-Amino-1-(2-chloro-benzyl)-piperidine-4-carboxylic acid (4-ethyl-phenyl)-amide] | 110 nM
Cc1ccccc1CN1CCC(O)(C(=O)Nc2ccc(C(C)(C)C)cc2)CC1 [Example 46, 4-Hydroxy-1-(2-methyl-benzyl)-piperidine-4-carboxylic acid (4-tert-butyl-phenyl)-amide] | 220 nM
COc1ccc(OC)c(NC(=O)N2CCC(O)(C(=O)Nc3ccc(C(C)(C)C)cc3)CC2)c1 [Example 49, 4-Hydroxy-piperidine-1,4-dicarboxylic acid 4-[(4-tert-butyl-phenyl)-amide] 1-[(2,5-dimethoxy-phenyl)-amide]] | 660 nM
O=C(CC1CCCC1)N1CCC(O)(C(=O)Nc2ccc(OC(F)(F)F)cc2)CC1 [Example 53, 1-(2-Cyclopentyl-acetyl)-4-hydroxy-piperidine-4-carboxylic acid (4-trifluoromethoxy-phenyl)-amide] | 790 nM
CC(C)c1ccc(NC(=O)C2(O)CCN(Cc3ccccc3)CC2)cc1 [Example 1, 1-Benzyl-4-hydroxy-piperidine-4-carboxylic acid (4-isopropyl-phenyl)-amide] | 460 nM
CC(C)c1ccc(NC(=O)C2(O)CCN(Cc3ccc(C(F)(F)F)cc3)CC2)cc1 [Example 9, 4-Hydroxy-1-(4-trifluoromethyl-benzyl)-piperidine-4-carboxylic acid (4-isopropyl-phenyl)-amide] | 450 nM
CC(C)(C)c1ccc(NC(=O)C2(O)CCN(S(=O)(=O)c3ccccc3Cl)CC2)cc1 [Example 17, 1-(2-Chloro-benzenesulfonyl)-4-hydroxy-piperidine-4-carboxylic acid (4-tert-butyl-phenyl)-amide] | 60 nM
CN(C(=O)C1(O)CCN(Cc2ccccc2Cl)CC1)c1ccc(OC(F)(F)F)cc1 [Example 71, 1-(2-Chloro-benzyl)-4-hydroxy-piperidine-4-carboxylic acid methyl-(4-trifluoromethoxy-phenyl)-amide] | 40 nM
CC(C)(C)c1ccc(NC(=O)C2(O)CCN(Cc3ccccc3Cl)CC2)cc1 [Example 44] | 80 nM
CN(C(=O)C1(O)CCN(S(=O)(=O)CC(C)(C)C)CC1)c1ccc(OC(F)(F)F)cc1 [Example 65, 1-(2,2-Dimethyl-propane-1-sulfonyl)-4-hydroxy-piperidine-4-carboxylic acid methyl-(4-trifluoromethoxy-phenyl)-amide] | 490 nM
CCc1ccc(NC(=O)C2(N)CCN(Cc3ccccc3OC(F)F)CC2)cc1 [Example 155, 4-Amino-1-(2-difluoromethoxy-benzyl)-piperidine-4-carboxylic acid (4-ethyl-phenyl)-amide] | 110 nM
CC(C)c1ccc(NC(=O)C2(O)CCN(C(=O)Nc3ccc(C(F)(F)F)cc3)CC2)cc1 [Example 6, 4-Hydroxy-piperidine-1,4-dicarboxylic acid 4-[(4-isopropyl-phenyl)-amide] 1-[(4-trifluoromethyl-phenyl)-amide]] | 210 nM

Further lines, results first:

IC50 | SMILES
140 nM | CC(C)(C)c1ccc(NC(=O)C2(N)CCN(C(=O)Nc3ccc(OC(F)(F)F)cc3)CC2)cc1 [Example 86, 4-Amino-piperidine-1,4-dicarboxylic acid 4-[(4-tert-butyl-phenyl)-amide]1-[(4-trifluoromethoxy-phenyl)-amide]; hydrochloride]
120 nM | O=C(Nc1ccc(OC(F)(F)F)cc1)C1(O)CCN(S(=O)(=O)c2ccccc2Cl)CC1 [Example 10, 1-(2-Chloro-benzenesulfonyl)-4-hydroxy-piperidine-4-carboxylic acid (4-trifluoromethoxy-phenyl)-amide]
90 nM | NC1(C(=O)Nc2ccc(OC(F)F)cc2)CCN(S(=O)(=O)c2ccccc2Cl)CC1 [Example 97, 4-Amino-1-(2-chloro-benzenesulfonyl)-piperidine-4-carboxylic acid (4-difluoromethoxy-phenyl)-amide]
530 nM | CCCCS(=O)(=O)N1CCC(N)(C(=O)Nc2ccc(CC)cc2)CC1 [Example 143, 4-Amino-1-(butane-1-sulfonyl)-piperidine-4-carboxylic acid (4-ethyl-phenyl)-amide]
290 nM | Cc1ccccc1S(=O)(=O)N1CCC(O)(C(=O)Nc2ccc(OC(F)(F)F)cc2)CC1 [Example 59, 4-Hydroxy-1-(toluene-2-sulfonyl)-piperidine-4-carboxylic acid (4-trifluoromethoxy-phenyl)-amide]
370 nM | Cc1ccc(NC(=O)C2(N)CCN(C(=O)Nc3ccc(C(C)(C)C)cc3)CC2)cc1 [Example 88, 4-Amino-piperidine-1,4-dicarboxylic acid 1-[(4-tert-butyl-phenyl)-amide]-4-p-tolylamide; hydrochloride]
50 nM | Cc1ccc(S(=O)(=O)N2CCC(N)(C(=O)Nc3ccc(OC(F)(F)F)cc3)CC2)cc1 [Example 80, 4-Amino-1-(toluene-4-sulfonyl)-piperidine-4-carboxylic acid (4-trifluoromethoxy-phenyl)-amide; hydrochloride]
200 nM | CN(C(=O)C1(O)CCN(S(=O)(=O)c2cccs2)CC1)c1ccc(OC(F)(F)F)cc1 [Example 66, 4-Hydroxy-1-(thiophene-2-sulfonyl)-piperidine-4-carboxylic acid methyl-(4-trifluoromethoxy-phenyl)-amide]
170 nM | CCc1ccc(NC(=O)C2(N)CCN(Cc3ccccc3F)CC2)cc1 [Example 153, 4-Amino-1-(2-fluoro-benzyl)-piperidine-4-carboxylic acid (4-ethyl-phenyl)-amide]
860 nM | Cc1ccc(S(=O)(=O)N2CCC(O)(C(=O)Nc3ccc(OC(C)C)cc3)CC2)cc1 [Example 12, 4-Hydroxy-1-(toluene-4-sulfonyl)-piperidine-4-carboxylic acid (4-isopropoxy-phenyl)-amide]
110 nM | CCc1ccc(NC(=O)C2(N)CCN(S(=O)(=O)c3ccc(CC)cc3)CC2)cc1 [Example 140, 4-Amino-1-(4-ethyl-benzenesulfonyl)-piperidine-4-carboxylic acid (4-ethyl-phenyl)-amide]
70 nM | CCCc1ccc(NC(=O)C2(N)CCN(S(=O)(=O)c3ccccc3Cl)CC2)cc1 [Example 98, 4-Amino-1-(2-chloro-benzenesulfonyl)-piperidine-4-carboxylic acid (4-propyl-phenyl)-amide]
80 nM | CCc1ccc(NC(=O)C2(N)CCN(S(=O)(=O)c3ccccc3C)CC2)cc1 [Example 135, 4-Amino-1-(toluene-2-sulfonyl)-piperidine-4-carboxylic acid (4-ethyl-phenyl)-amide]
610 nM | CCc1ccc(NC(=O)C2(N)CCN(S(=O)(=O)c3ccc(Cl)nc3)CC2)cc1 [Example 148, 4-Amino-1-(6-chloro-pyridine-3-sulfonyl)-piperidine-4-carboxylic acid (4-ethyl-phenyl)-amide]
140 nM | CCc1ccc(NC(=O)C2(N)CCN(S(=O)(=O)c3ccccc3OC)CC2)cc1 [Example 137, 4-Amino-1-(2-methoxy-benzenesulfonyl)-piperidine-4-carboxylic acid (4-ethyl-phenyl)-amide]
490 nM | CC(C)c1ccc(NC(=O)C2(N)CCN(C(=O)c3ccc(F)cc3)CC2)cc1 [Example 127, 4-Amino-1-(4-fluoro-benzoyl)-piperidine-4-carboxylic acid (4-isopropyl-phenyl)-amide]
90 nM | CN(C(=O)C1(O)CCN(S(=O)(=O)c2ccccc2F)CC1)c1ccc(OC(F)(F)F)cc1 [Example 70, 1-(2-Fluoro-benzenesulfonyl)-4-hydroxy-piperidine-4-carboxylic acid methyl-(4-trifluoromethoxy-phenyl)-amide]
120 nM | CCc1ccc(NC(=O)C2(N)CCN(S(=O)(=O)c3ccc(C)cc3)CC2)cc1 [Example 81, 4-Amino-1-(toluene-4-sulfonyl)-piperidine-4-carboxylic acid (4-ethyl-phenyl)-amide]

— patent publication US8399676B2, “Piperidine derivatives” (Hoffman-La Roche Inc., priority 2009, dated 2013)
